Values quoted from earlier work, collected in US10406114B2, “Antibiotic-loaded transdermal patch” (priority 2017, dated 2019).

Tested on: Staphylococcus aureus

- MIC: about 8 μg/ml
SMILES: CC1=C(C(=O)O)N2C(=O)[C@@H](NC(=O)[C@H](N)c3ccccc3)[C@H]2SC1 [cephalexin]
